Here are results for one compound from patent publication US11660281B2, “Compositions and methods of treating or preventing fibrotic lung diseases” (YALE UNIVERSITY, priority 2017, dated 2023).

In assay [1] the test system is Ppargc1a, Thra and Thrb expression in bleomycin induced mouse lungs. As to the kind of experiment: quantitative RT-PCR of relative gene expression in lungs, bleomycin model of lung fibrosis. The class given is in vivo, mice (C57/BL6). To be noted: GC-1 30 μg/kg intraperitoneally every other day, days 10-18 after bleomycin; lungs at day 21; FIGS. 3A-3C. On the procedure:
(§1) C57B1/6, 9-12 weeks-old, female mice were purchased from Taconic Lab. Mice were anesthetized by placing them in a chamber having paper towels soaked with 40% isoflurane solution. 1.5 U/kg of bleomycin (Hospira, Ill.) or equivalent volume (50 μl) of 0.9% normal saline was administered intratracheally. To test therapeutic efficacy in bleomycin-induced established fibrosis intraperitoneal thyroid hormone receptor beta agonist (GC-1, 30 μg/kg) was administered at days 10, 12, 14, 16 and 18 following bleomycin-administration and mice were sacrificed at day 21. The lungs were harvested for fibrotic assays
qRT-PCR assay: Gene expression was determined by TaqMan® (Life Technologies, Thermo Scientific Inc. Rockford Ill., USA) according to manufacturer's instruction. β-glucuronidase (Gusb) was employed as an internal standard control and the specific primers and probes were all obtained from Life Technologies (Thermo Scientific Inc. Rockford Ill., USA). […]
9-12 weeks-old, C57/BL6 female mice were treated every other day intraperitoneally with thyroid hormone receptor beta agonist GC-1 (30 μg/kg) or equivalent volume of empty vehicle (200 μl of normal saline 0.9%) at days 10-18 following intratracheal challenge with bleomycin (1.5 U/kg) or normal saline 0.9%. […] FIGS. 3A-3C illustrate quantitative RT-PCR analysis of Ppargc1a, Thra and Thrb relative expression in the bleomycin model of lung fibrosis. […]

In assay [2] the test system is bleomycin induced lung fibrosis. Kind of assay: bleomycin-induced established lung fibrosis in mice: fibrosis and Masson's Trichrome histology. The class given is in vivo, mice (C57/BL6). To be noted: for collagen deposition in the interstitium, peribronchiolar, or perivascular space (Masson's Trichrome staining): days 10-18 after bleomycin, day 21 lung sections; for established fibrosis in bleomycin induced lung fibrosis: days 10-18 after intratracheal bleomycin 1.5 U/kg, sacrifice day 21. On the procedure:
as §1
Hydroxyproline: Lung hydroxyproline was analyzed with hydroxyproline colorimetric assay kit from Biovision (Milpitas, Calif.) following manufacturer's instruction.
Histology: Tissue sections (4 μm) were stained with Masson Trichrome (collagen/connective tissue), two slices per animal, and two animals per group.
FIG. 1 illustrates an experiment where mice with bleomycin-induced fibrosis were treated with GC-1 intraperitoneally. On Day 0, bleomycin was delivered intratracheally to the mice (1.5 U/kg). On days 10-18, the mice were administered 30 μg/kg of GC-1 (200 μl) or equivalent volume of vehicle (normal saline 0.9%).
9-12 weeks-old, C57/BL6 female mice were treated every other day intraperitoneally with thyroid hormone agonist GC-1 (30 μg/kg) or equivalent volume of empty vehicle (200 μl of normal saline 0.9%) at days 10-18, following intratracheal challenge with bleomycin (1.5 U/kg) or normal saline 0.9%. Mice were sacrificed at day 21. […] Data are expressed as mean hydroxyproline content per lung set (μg/gr lung)+SEM, n=8 mice/group, *p<0.05. FIGS. 2A-2D illustrate quantitative RT-PCR analysis of Col1a1, Col3a1, and FSP1 relative expression in the bleomycin model of lung fibrosis. Bars (means±SEM) are shown for the relative changes (fold) by setting the indicated control level to 1.0, *p<0.05. […]
9-12 weeks-old, C57/BL6 female mice were treated every other day orally by gavage with thyroid hormone receptor agonist GC-1 (5 mg/kg) or equivalent volume of empty vehicle (200 μl of normal saline 0.9%) at days 10-18 following intratracheal challenge with bleomycin (1.5 U/kg) or normal saline 0.9%. […] FIG. 5A: Hydroxyproline level in mice was assessed. Data are expressed as mean hydroxyproline content per lung set (μg/gr lung)+SEM, n=8 mice/group, *p<0.05. FIGS. 5B-5F illustrate quantitative RT-PCR analysis of Col1a1 (collagen, type I, alpha 1), Col3a1 (collagen, type III, alpha 1), FSP1 (fibroblast-specific protein 1), Acta (alpha-actin-2), and Ppargc1a (peroxisome proliferator-activated receptor gamma coactivator 1-alpha) relative expression in the bleomycin model of lung fibrosis. […]

Consider `Cc1cc(OCC(=O)O)cc(C)c1Cc1ccc(O)c(C(C)C)c1` [GC-1, 2-(4-(4-hydroxy-3-isopropylbenzyl)-3,5-dimethylphenoxy)acetic acid], for which the “Ppargc1a relative expression (qRT-PCR)” value in assay [1] is recorded as “regulates expression”. Also, the “collagen deposition in the interstitium, peribronchiolar, or perivascular space (Masson's Trichrome staining)” value in assay [2] (GC-1 30 μg/kg intraperitoneally every other day, FIG. 2E) is reported as “significant decrease in collagen deposition”; in assay [2] (GC-1 5 mg/kg orally by gavage every other day), “significant decrease in collagen deposition”. The “established fibrosis in bleomycin induced lung fibrosis” value is reported as “blunt established fibrosis” in assay [2] (GC-1 30 μg/kg intraperitoneally every other day, FIGS. 2A-2E) and “blunt established fibrosis” in assay [2] (GC-1 5 mg/kg orally by gavage every other day, FIGS. 5A-5G).
